Source: ChEMBL document CHEMBL4229345, “Inhibition of trypanosome alternative oxidase without its N-terminal mitochondrial targeting signal (ΔMTS-TAO) by cationic and non-cationic 4-hydroxybenzoate and 4-alkoxybenzaldehyde derivatives active against T. brucei and T. congolense” (Eur J Med Chem, 2018)

Experiments:
[1] = Resistance factor, ratio of EC50 for bloodstream trypomastigote stage of pentamidine/diminazene/melaminophenyl arsenical resistant Trypanosoma brucei B48 to EC50 for bloodstream trypomastigote stage of wild-type Trypanosoma brucei brucei Lister 427; assay type: functional
[2] = tested on: Trypanosoma brucei brucei; assay: Anti-parasitic activity against bloodstream trypomastigote stage of Trypanosoma brucei brucei with AQP triple knock out after 48 hrs by resazurin-based assay; assay type: functional, organism-based
[3] = tested on: Trypanosoma brucei brucei; assay: Resistance factor, ratio of EC50 for bloodstream trypomastigote stage of Trypanosoma brucei brucei AQP triple knock out to EC50 for bloodstream trypomastigote stage of wild-type Trypanosoma brucei brucei Lister 427; assay type: functional
Trypanosoma congolense [4] = assay: Potency index, ratio of diminazene EC50 to test compound EC50 for anti-parasitic activity against bloodstream form of Trypanosoma congolense IL3000; assay type: functional
Trypanosoma congolense [5] = assay: Anti-parasitic activity against bloodstream form of Trypanosoma congolense IL3000 after 48 hrs by resazurin-based assay; assay type: functional, organism-based; conditions: IL3000, 48 h
[6] = tested on: Trypanosoma brucei brucei; assay: Anti-parasitic activity against bloodstream trypomastigote stage of wild-type Trypanosoma brucei brucei Lister 427 after 48 hrs by resazurin-based assay; assay type: functional, organism-based; conditions: Lister 427, 48 h
[7] = Half life in mouse serum by LC/MS analysis; assay type: ADME, cell-free
[8] = Selectivity index, ratio of CC50 for HFF cells to EC50 for bloodstream trypomastigote stage of wild-type Trypanosoma brucei brucei Lister 427; assay type: toxicity; conditions: human, read-out: Ratio CC50/EC50
[9] = Cytotoxicity against HFF cells assessed as reduction in cell viability after 30 hrs by resazurin-based assay; conditions: human
[10] = tested on: Trypanosoma brucei brucei; assay: Anti-parasitic activity against bloodstream trypomastigote stage of Trypanosoma brucei brucei with AQP2/3-dd knock out after 48 hrs by resazurin-based assay; assay type: functional, organism-based
[11] = Selectivity index, ratio of CC50 for HFF cells to EC50 for bloodstream form of Trypanosoma congolense IL3000; assay type: toxicity; conditions: human, read-out: Ratio CC50/EC50
[12] = tested on: Trypanosoma brucei brucei; assay: Anti-parasitic activity against bloodstream trypomastigote stage of wild-type Trypanosoma brucei brucei Lister 427 after 48 hrs in presence of 5 mM glycerol by resazurin-based assay; assay type: functional, organism-based; conditions: Lister 427, 48 h
Trypanosoma brucei = assay: Anti-parasitic activity against bloodstream trypomastigote stage of pentamidine/diminazene/melaminophenyl arsenical resistant Trypanosoma brucei B48 after 48 hrs by resazurin-based assay; assay type: functional, organism-based; conditions: B48, 48 h
[13] = tested on: Trypanosoma brucei brucei; assay: Resistance factor, ratio of EC50 for bloodstream trypomastigote stage of Trypanosoma brucei brucei with AQP2/3-dd knock out to EC50 for bloodstream trypomastigote stage of wild-type Trypanosoma brucei brucei Lister 427; assay type: functional
[14] = Inhibition of recombinant N-terminal His6 tagged SUMO-fused Trypanosoma brucei brucei TC221 TAO MTS deletion mutant expressed in Escherichia coli FN102 preincubated for 2 mins followed by ubiquinol-1 addition measured over 2 mins by double beam-dual wavelength UV-spectrophotometry
[15] = tested on: Trypanosoma brucei brucei; assay: Potency index, ratio of diminazene EC50 to test compound EC50 for anti-parasitic activity against bloodstream trypomastigote stage of wild-type Trypanosoma brucei brucei Lister 427; assay type: functional
[16] = tested on: Trypanosoma brucei brucei; assay: Resistance factor, ratio of EC50 for bloodstream trypomastigote stage of wild-type Trypanosoma brucei brucei Lister 427 in presence of 5 mM glycerol to EC50 for bloodstream trypomastigote stage of wild-type Trypanosoma brucei brucei Lister 427; assay type: functional
[17] = Stability in mouse serum assessed as compound hydrolysis after 1 hr by LC/MS analysis; assay type: ADME, cell-free; conditions: read-out: Drug degradation
[18] = Selectivity index, ratio of CC50 for HEK cells to EC50 for bloodstream trypomastigote stage of wild-type Trypanosoma brucei brucei Lister 427; assay type: toxicity; conditions: human, read-out: Ratio CC50/EC50
[19] = Noncompetitive inhibition of recombinant N-terminal His6 tagged SUMO-fused Trypanosoma brucei brucei TC221 TAO MTS deletion mutant expressed in Escherichia coli FN102 preincubated for 2 mins followed by ubiquinol-1 addition measured over 2 mins by Lineweaver-Burk plot analysis
[20] = Cytotoxicity against HEK cells assessed as reduction in cell viability after 30 hrs by resazurin-based assay; conditions: human
[21] = Selectivity index, ratio of CC50 for HEK cells to EC50 for bloodstream form of Trypanosoma congolense IL3000; assay type: toxicity; conditions: human, read-out: Ratio CC50/EC50
[22] = Stability in mouse serum assessed as compound hydrolysis after 24 hrs by LC/MS analysis; assay type: ADME, cell-free; conditions: read-out: Drug degradation
[23] = Competitive inhibition of recombinant N-terminal His6 tagged SUMO-fused Trypanosoma brucei brucei TC221 TAO MTS deletion mutant expressed in Escherichia coli FN102 preincubated for 2 mins followed by ubiquinol-1 addition measured over 2 mins by Lineweaver-Burk plot analysis

SMILES: O=C(OCCCCCCCCCCCCCC[P+](c1ccccc1)(c1ccccc1)c1ccccc1)c1ccc(O)cc1F.[Br-]
- Ratio EC50 [1]: 1.3
- EC50 [2]: 0.00037 µM
- Ratio EC50 [3]: 0.64
- Ratio EC50 (Trypanosoma congolense [4]): 5 - 40
- EC50 (Trypanosoma congolense [5]): 0.018 µM
- EC50 [6]: 0.00058 µM
- half-life [7]: < 15 min
- selectivity ratio [8]: > 344000
- CC50 at 30 h [9]: > 200 µM
- EC50 [10]: 0.00025 µM
- selectivity ratio [11]: > 11000
- EC50 [12]: 0.00039 µM
- EC50 (Trypanosoma brucei): 0.00075 µM
- Ratio EC50 [13]: 0.43
- IC50 [14]: 0.03 µM
- Ratio EC50 [15]: 5 - 40
- Ratio EC50 [16]: 0.66

SMILES: O=C(OCCCCCCCCCCCCCC[n+]1cccc2ccccc21)c1ccc(O)cc1O
- metabolised at 1 h [17]: 50%
- IC50 [14]: 1.36 µM

SMILES: O=COCCCCCCCCCCCCCCCCOC(=O)c1ccc(O)cc1O
- Ratio EC50 [1]: 1.1
- EC50 [2]: 1.27 µM
- selectivity ratio [18]: > 34
- Ki [19]: 0.0714 µM
- Ratio EC50 [3]: 0.11
- EC50 (Trypanosoma congolense [5]): > 100 µM
- CC50 at 30 h [20]: > 400 µM
- EC50 [6]: 11.9 µM
- EC50 [10]: 5 µM
- EC50 [12]: 5.1 µM
- EC50 (Trypanosoma brucei): 13 µM
- Ratio EC50 [13]: 0.42
- IC50 [14]: 0.0144 µM
- Ratio EC50 [16]: 0.43

SMILES: O=C(OCCCCCCCCCCOC(=O)c1ccc(O)cc1O)c1ccc(O)cc1O
- Ratio EC50 [1]: 0.85
- EC50 [2]: 7.1 µM
- selectivity ratio [18]: > 8
- Ki [19]: 0.0341 µM
- Ratio EC50 [3]: 0.14
- EC50 (Trypanosoma congolense [5]): > 100 µM
- CC50 at 30 h [20]: > 400 µM
- EC50 [6]: 49 µM
- EC50 [10]: 24.6 µM
- EC50 [12]: 12.2 µM
- EC50 (Trypanosoma brucei): 41.6 µM
- Ratio EC50 [13]: 0.5
- IC50 [14]: 0.0069 µM
- Ratio EC50 [16]: 0.25

SMILES: O=C(OCCCCCCCCCCCCBr)c1ccc(O)cc1O
- Ratio EC50 [1]: 1.03
- EC50 [2]: 4.7 µM
- selectivity ratio [21]: > 7.7
- Ratio EC50 [3]: 0.32
- CC50 at 30 h [20]: > 400 µM
- selectivity ratio [8]: > 27
- EC50 [10]: 10 µM
- EC50 [12]: 6.2 µM
- Ratio EC50 [13]: 0.69
- IC50 [14]: 0.0174 µM
- Ratio EC50 [16]: 0.42

SMILES: Cc1cc(O)ccc1C(=O)OCCCCCCCCCCCCCC[n+]1cccc2ccccc21.[Br-]
- Ratio EC50 [1]: 1.4
- EC50 [2]: 0.086 µM
- metabolised at 24 h [22]: > 99%
- Ratio EC50 [3]: 0.41
- EC50 (Trypanosoma congolense [5]): 1.82 µM
- Ki [23]: 0.0529 µM
- EC50 [6]: 0.21 µM
- half-life [7]: 30 min
- selectivity ratio [8]: > 952
- CC50 at 30 h [9]: > 200 µM
- EC50 [10]: 0.1 µM
- selectivity ratio [11]: > 110
- EC50 [12]: 0.145 µM
- EC50 (Trypanosoma brucei): 0.3 µM
- Ratio EC50 [13]: 0.47
- IC50 [14]: 0.03 µM
- Ratio EC50 [16]: 0.69
